From US6696478B2, “Cancer treatment with Gö6976 and its related compounds” (priority 1999, dated 2004)

Experiments:
[1] = tested on: DU145 human prostate cancer cells; assay: Cell viability assay (trypan blue), prostate cancer cells, second set; format: cell-based; details: approximately 5×10^5 cells seeded, seven days after treatment
Method: DU145 human prostate cancer cells,
(§1) These cells were maintained in Dulbecco's modified Eagle medium (DMEM) supplemented with 10 percent bovine calf serum.
(§2) Cells were seeded for 24 hours. Then they were either treated with Gö6976, C-o 002, or C-o 003, or left untreated. The cells were then collected periodically and evaluated using trypan blue dye exclusion to asses viability using the method described by CY Chen, et al, in J.Biol. Chem. 273:16700-16709.
(§3) Two sets of approximately 5×10^5 DU145 prostate cancer cells, HepG2 liver cancer cells, AGS gastric cancer cells, and T84 colorectal cancers were seeded and 24 hours later one of the sets were treated with 2 μm Gö6976. Seven days after treatment, viable cells were counted.
(§4) Two sets of approximately 5×10^5 human MDA-MB-468 breast cancer cells, DU145 human prostate cancer cells, A549 lung cancer cells, AGS gastric cancer cells, and T84 colorectal cancer cells were seeded and treated with 14 μm C-o 002 and C-o 003 24 hours later. Seven days after treatment, viable cells were counted.

[2] = tested on: A549 human lung cancer cells; assay: Cell viability assay (trypan blue), lung cancer cells, second set; format: cell-based; details: 14 μm compound; approximately 5×10^5 cells seeded; seven days after treatment
Method: A549 human lung cancer cells,
as §1, §2, §4

[3] = tested on: HepG2 human liver cancer cells; assay: Cell viability assay (trypan blue), liver cancer cells, second set; format: cell-based; details: seven days after treatment
Method: HepG2 human liver cancer cells,
as §1, §2, §3, §4

[4] = tested on: AGS human gastric cancer cells; assay: Cell viability assay (trypan blue), gastric cancer cells, second set; format: cell-based; details: approximately 5×10^5 cells seeded, seven days after treatment
Method: AGS human gastric cancer cells,
as §1, §2, §3, §4

[5] = tested on: T84 human colorectal cancer cells; assay: Cell viability assay (trypan blue), colorectal cancer cells, second set; format: cell-based; details: approximately 5×10^5 cells seeded, seven days after treatment
Method: T84 human colorectal cancer cells,
as §1, §2, §3, §4

[6] = tested on: MDA-MB-468 human breast cancer cells; assay: Cell viability assay (trypan blue), breast cancer cells, second set; format: cell-based; details: 14 μm compound; approximately 5×10^5 cells seeded; seven days after treatment
Method: MDA-MB-468 human breast cancer cells
as §1, §2, §4

[7] = tested on: normal cells including rat 3Y1 fibroblast; assay: Toxic effects on normal cells; format: cell-based
Source text: Toxic effects begin to show up at concentrations of about 5 micromoles in these types of cells.

[8] = tested on: Hela human cervical cancer cells; assay: Cell growth, cervical cancer cells, second set; format: cell-based; details: 2 μm Gö6976 for 7 days; approximately 5×10^5 cells seeded (FIG. 10)
Method: Hela human cervical cancer cells
as §1, §2
(§5) Two sets of approximately 5×10^5 C6 glioma cells and Hela cervical cancer cells were seeded and treated or untreated with 2 μm Gö6976 for 7 days.

[9] = tested on: U-2 OS human osteosacoma cells; assay: Cell viability assay (trypan blue), osteosarcoma cells; format: cell-based; details: 2 micromoles Gö6976; about 5×10^5 cells at start; after four days (FIG. 6)
Method: U-2 OS human osteosacoma cells,
as §1
(§6) Cells were seeded for 24 hours. Then they were either treated with Gö6976 or left untreated. The cells were then collected periodically and evaluated using trypan blue dye exclusion to asses viability using the method described by CY Chen, et al, in J.Biol. Chem. 273:16700-16709.
One of two samples of about 5×10^5 cells was treated with 2 micromoles of Gö6976 and the viable cells were counted after four days.

[10] = tested on: Non-small cell lung cancer cells (NCI-H2342); assay: Cell viability assay (trypan blue), non-small cell lung cancer cells; format: cell-based; details: treated with Gö6976 (concentration not given); about 5×10^5 cells at start; day 4 (FIG. 5)
Method: Non-small cell lung cancer cells (NCI-H2342).
(§7) Small cell lung cancer cells were grown in RPMI 1640 medium with 2 mM L-glutamine adjusted to contain 1.5 g/L sodium bicarbonate, 4.5 g/L glucose, 10 mM HEPES, 1.0 mM sodium pyruvate, and 5% fetal bovine serum. Non-small cell lung cancer cells were grown in RPMI 1640 medium supplemented with 5% fetal bovine serum, 5 ug/ml insulin, 10 ug/ml transferrin, 30 nM sodium selenite, 10 nM hydrocortisone, 10 nM beta-estradiol, 10 mM HEPES, and 2 mM L- glutamine.
as §6
(§8) Two samples each of about 5×10^5 cells small lung cancer cells and non-small lung cancer cells were prepared and one sample of each type was treated with Gö6976 and the viable cells were counted at day 4. In the untreated samples the cancer cells had multiplied by almost a factor of 10 and in the treated samples the count had decreased to less than 0.5 of the original count.

[11] = tested on: HL60 human acute promyelocytic leukemia cells; assay: Cell viability assay (trypan blue), leukemia cells; format: cell-based; details: 2 micromoles Gö6976; 5×10^5 cells at start; after four days (FIG. 4)
Method: HL60 human acute promyelocytic leukemia cells were grown in RPMI 1640 medium containing 10 percent heat-inactivated fetal bovine serum (FBS).
as §6
One of two samples of 5×10^5 cells was treated with 2 micromoles of Gö6976 and the viable cells were counted after four days. At four days the cells in the untreated sample had grown by a factor of nearly 10 to almost 5×10^6 cells whereas viable cells in the treated sample was less than 0.2×10^5.

PKC α = details: cited from earlier work
C6 glioma cells = assay: Cell growth, brain tumor cells, second set; format: cell-based; details: 2 μm Gö6976 for 7 days; approximately 5×10^5 cells seeded (FIG. 10)
Method: as §1, §2, §5

[12] = tested on: 3Y1 cells overexpressing EGF receptors; assay: EGF-induced cell transformation (morphology); format: cell-based, rat
Source text: (§9) 3Y1 rat fibroblast cells overexpressing the epidermal growth factor receptor (EGFR).
as §1

[13] = tested on: A431 human epidermoid carcinoma cells; assay: Cell viability assay (trypan blue), epidermoid carcinoma cells; format: cell-based; details: 2 micromoles Gö6976; about 5×10^5 cells at start; at four days; untreated grew by a factor of about 24 (FIG. 7)
Method: A431 human epidermoid carcinoma cells,
as §1, §6
One of two samples of about 5×10^5 cells was treated with 2 micromoles of Gö6976 and the viable cells were counted each 24 hours for four days.

[14] = tested on: 3Y1 cells overexpressing EGF receptors; assay: Anchorage-independent cell growth in soft agar (EGF-induced colony formation); format: cell-based, rat; details: 100 ng/ml EGF and 250 nanamoles Gö6976; three weeks in soft agar (FIG. 8)
Source text: as §9
For growth of these cells in soft agar, 1×10^3 cells were suspended in top agar (consisting of 20 percent calf serum, 0.38 percent agar and the remainder DMEM) and overlaid onto hardened bottom agar (DMEM, 20 percent calf serum and 0.7 percent agar) as reported by Sementchenko et al, in Onocgen 17:2883-2888.
The effect of Gö6976 on blocking EGF-induced cell transformation was further confirmed by checking anchorage-independent cell growth. […] One sample was left untreated, one was treated with 100 ng/ml of EGF, one sample was treated with 100 ng/ml of EGF and 250 nanamoles of Gö6976 and one sample was treated with 250 nanaomoles of Gö6976. In each case the percentage of cell forming colonies were determined three weeks after suspending the cells in soft agar.

[15] = tested on: human breast cancer cells (MDA-MB-468 and MDA-MB-453); assay: Cell viability assay (trypan blue dye exclusion), breast cancer cells, first set; format: cell-based; details: for viable cell count: about 5×10^5 cells at start, counted at day 4 (FIG. 2)
Method: MDA-MB-468 human breast cancer cells,
MDA-MB-453 human breast cancer cells,
as §1, §6
In both FIG. 2 and FIG. 3 error bars indicated the estimated standard error based on three independent experiments.

[16] = tested on: Small cell lung cancer cells (NCI-H048); assay: Cell viability assay (trypan blue), small cell lung cancer cells; format: cell-based; details: treated with Gö6976 (concentration not given); about 5×10^5 cells at start; day 4 (FIG. 5)
Method: Small cell lung cancer cells (NCI-H048),
as §7, §6, §8

NCCCn1c2ccccc2c2c3c(c4c5ccccc5[nH]c4c21)CNC3 [C-o 002, 12-(3-Aminopropyl)-5,6,7,12,13-pentahydro-indolo[2,3,-a] pyrrolo [3,4-c] carbazole]
viable cells counted ([1]; 14 μm compound): 0
viable cells counted [2]: 7 × 10^5
viable cells counted ([3]; 14 μm compound): 0
viable cells counted ([4]; 14 μm compound): 0
viable cells counted ([5]; 14 μm compound): 1.9 × 10^4
viable cells counted [6]: 0

Cn1c2ccccc2c2c3c(c4c5ccccc5n(CCC#N)c4c21)CNC3=O [Gö6976, 12-(2-Cyanoethyl)-6,7,12,13-tetrahydro-13-methyl-5-oxo-5H-indolo[2,3-a]pyrrolo[3,4-c]carbazole]
toxic effects on normal cells ([7]; concentrations used in the first set of experiments): no significant toxic effects
concentration at which toxic effects begin to show up ([7]; normal cells): about 5 micromoles
cell growth [8]: significant inhibited the growth
viable cells in the treated sample relative to the original count [9]: reduced to about half the original count
viable cell count relative to the original count [10]: less than 0.5
viable cells counted ([1]; 2 μm Gö6976): 0
viable cells in the treated sample [11]: less than 0.2×10^5
viable cells counted ([3]; 2 μm Gö6976, approximately 5×10^5 cells seeded): 0
TPA-induced downregulation of PKC α (PKC α): prevented TPA-induced downregulation
cell growth (C6 glioma cells): significant inhibited the growth
toxic effect on 3Y1 EGFR cells ([12]; Gö6976 alone): did not show any toxic effect
EGF-induced cell transformation (transformed morphology) ([12]; co-treatment with 250 nanamoles Gö6976 and 100 ng/ml EGF, 24 hours): completely blocked
viable cells in the treated sample relative to the original count [13]: approximately doubled
colony forming efficiency of EGF (percentage of cell forming colonies) [14]: greatly reduced
viable cell count ([15]; 1 micromole Gö6976): about 1×10^5
viable cell count ([15]; 2.0 micromolar Gö6976): less than 0.3×10^5
viable cell concentration over time ([15]; 2.0 micromoles Gö6976, measured at 24 hours intervals for 4 days (FIG. 3)): reduced by approximately half each 24 hours
viable cells counted ([4]; 2 μm Gö6976): 0
viable cell count relative to the original count [16]: less than 0.5
viable cells counted ([5]; 2 μm Gö6976): 1.1 × 10^4

Cl.NCCCn1c2ccccc2c2c3c(c4c5ccccc5[nH]c4c21)CNC3 [C-o 003, 12-(3-Aminopropyl)-5,6,7,12,13-pentahydro-indolo[2,3,-a] pyrrolo [3,4-c] carbazole hydrochloride]
viable cells counted ([1]; 14 μm compound): 0
viable cells counted [2]: 8.5 × 10^5
viable cells counted ([3]; 14 μm compound): 0
viable cells counted ([4]; 14 μm compound): 0
viable cells counted ([5]; 14 μm compound): 2.7 × 10^4
viable cells counted [6]: 0
